pKi: −log10 of the molar value.
Legend:
[1] = biological target: T1, human recombinant DP1 receptor (Homo sapiens, UniProt Q13258); test: [3H]PGD2 displacement, membranes; type: binding
T1 sequence (Q13258 1-359): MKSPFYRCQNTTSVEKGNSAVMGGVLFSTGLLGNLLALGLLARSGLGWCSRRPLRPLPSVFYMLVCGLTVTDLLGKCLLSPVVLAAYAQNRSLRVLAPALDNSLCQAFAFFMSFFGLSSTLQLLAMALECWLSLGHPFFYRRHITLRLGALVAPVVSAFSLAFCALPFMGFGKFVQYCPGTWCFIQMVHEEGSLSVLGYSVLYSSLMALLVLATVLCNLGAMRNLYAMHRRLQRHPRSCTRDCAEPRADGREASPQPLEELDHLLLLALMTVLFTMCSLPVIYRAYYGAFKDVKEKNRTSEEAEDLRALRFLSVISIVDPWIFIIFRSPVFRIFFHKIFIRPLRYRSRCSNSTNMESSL

[2] = biological target: T2, human recombinant EP1 receptor (Homo sapiens, UniProt P34995); test: [3H]PGE2 displacement, membranes; type: binding
T2 sequence (P34995 1-402): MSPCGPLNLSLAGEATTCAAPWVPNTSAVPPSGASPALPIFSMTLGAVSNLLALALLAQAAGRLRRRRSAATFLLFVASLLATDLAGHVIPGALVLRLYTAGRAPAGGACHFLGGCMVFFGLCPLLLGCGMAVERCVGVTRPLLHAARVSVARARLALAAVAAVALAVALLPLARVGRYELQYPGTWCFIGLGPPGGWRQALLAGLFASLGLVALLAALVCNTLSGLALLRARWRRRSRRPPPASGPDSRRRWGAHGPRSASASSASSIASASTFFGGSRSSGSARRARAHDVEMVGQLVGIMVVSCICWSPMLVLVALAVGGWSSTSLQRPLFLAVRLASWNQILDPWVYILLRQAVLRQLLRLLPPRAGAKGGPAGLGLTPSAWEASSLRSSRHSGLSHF

Structure (SMILES): CCCCC[C@H](O)/C=C/[C@H]1C(=O)C[C@H](O)[C@@H]1C/C=C\CCCC(=O)O [PGD2]
- pKi [1]: 8.60

Structure (SMILES): CCCCC[C@H](O)/C=C/[C@H]1[C@H](O)CC(=O)[C@@H]1C/C=C\CCCC(=O)O [PGE2]
- pKi [2]: 7.30
